Assay results taken from patent EP1487791B1, “A NOVEL ANTIFUNGAL MOLECULE 2-(3,4-DIMETHYL-2,5-DIHYDRO-1H-PYRROL-2-YL)- METHYLETHYL PENTANOATE” (priority 2002, dated 2003).

What was measured:
Type in all cases: cell-based
A. fumigatus = assay: Microbroth dilution assay; design: key: +ve if medium appeared clear with out any growth of fungi; -ve if growth was there
Protocol: (§1) Pathogenic strains of fungi were obtained from the Mycology Department of Vallabhbhai Patel Chest Institute, Delhi. All the strains were grown on Sabouraud dextrose agar at 37°C. The conidia form these cultures were harvested and suspended in Sabouraud maltose broth. The number of conidia was counted using haemocytometer and their number in the suspension was adjusted to as per need of the experiment.
(§2) The antifungal susceptibility of the fungi to various fractions or the purified component was assayed by the microbroth, dilution method (Forthergill A.W. and McGough A.W., 1995, Clin. Microbiol. Procedure Handbook. In Vitro susceptibility Testing of Yeast, 5.15.1-5.15.15). The fungal spores were harvested from 96-h cultures and their number adjusted to 1x10^6 per ml. The Sabouraud Dextrose medium was dissolved in glass double distilled water and autoclaved at 10 psi for 15 min. 90-µl medium was added into the wells of cell culture plates. The different concentrations of the extract, fractions or the purified compound were prepared in duplicate wells and then the wells were inoculated with 10 µl of spore suspension. The plates were incubated at 37°C and examined macroscopically after 48 h for the growth of fungal mycelia. The activity was represented as -ve if growth was there and +ve if medium appeared clear with out any growth of fungi.
(§3) The antifungal susceptibility of the fungi to the purified compound was assayed by the microbroth dilution method. The different concentrations of the purified compound ranging from 21.87 to 350 µg/ml were prepared in duplicate wells by twofold dilution method. The test was done as described above. […] Table 1: Activity of the compound against Aspergillus sp. after 48 hrs.

A. niger = assay: Microbroth dilution assay; design: key: +ve if medium appeared clear with out any growth of fungi; -ve if growth was there
Protocol: as §1, §2, §3

A.flavus = assay: Microbroth dilution assay; design: key: +ve if medium appeared clear with out any growth of fungi; -ve if growth was there
Protocol: as §1, §2, §3

Aspergillus sp. = assay: Microbroth dilution assay, MIC over the three species; settings: no visual growth of the three species of Aspergillus, 48 h
Protocol: as §1
as §2, with “fungi. […]” for “fungi.”

CCCCC(=O)OC(C)CC1NCC(C)=C1C (stereo not shown) [PC-1, 2-(3,4-dimethyl-2,5-dihydro-1H-pyrrol-2-yl)-1-methylethyl pentanoate]
87.5 µg/mL: MIC (Aspergillus sp.)
-: Activity against Aspergillus sp. after 48 hrs (A. fumigatus; 21.87 µg/ml) | Activity against Aspergillus sp. after 48 hrs (A. fumigatus; 43.75 µg/ml) | Activity against Aspergillus sp. after 48 hrs (A. niger; 21.87 µg/ml) | Activity against Aspergillus sp. after 48 hrs (A. niger; 43.75 µg/ml) | Activity against Aspergillus sp. after 48 hrs (A.flavus; 21.87 µg/ml) | Activity against Aspergillus sp. after 48 hrs (A.flavus; 43.75 µg/ml)
+: Activity against Aspergillus sp. after 48 hrs (A. fumigatus; 87.50 µg/ml) | Activity against Aspergillus sp. after 48 hrs (A. fumigatus; 175.00 µg/ml) | Activity against Aspergillus sp. after 48 hrs (A. fumigatus; 350.00 µg/ml) | Activity against Aspergillus sp. after 48 hrs (A. niger; 87.50 µg/ml) | Activity against Aspergillus sp. after 48 hrs (A. niger; 175.00 µg/ml) | Activity against Aspergillus sp. after 48 hrs (A. niger; 350.00 µg/ml) | Activity against Aspergillus sp. after 48 hrs (A.flavus; 87.50 µg/ml) | Activity against Aspergillus sp. after 48 hrs (A.flavus; 175.00 µg/ml) | Activity against Aspergillus sp. after 48 hrs (A.flavus; 350.00 µg/ml)
